Measured values from patent publication US20110281901A1, “PHARMACEUTICAL COMPOSITIONS AND METHODS OF MAKING SAME” (GLAXO WELLCOME MANUFACTURING PTE LTD., priority 2010, published 2011).
Values after ≈ are worked out from the molar mass of the structure shown.

Tests used:
[1] = Solubility of pazopanib free base in phosphate buffer; details: 25° C., pH 3.5
physchem = details: phosphate buffer, 25 °C, pH 5, aqueous buffer

approximate solubility [1]: ~0.02 mg/mL
solubility (physchem): ~6 ng/mL (≈ 0.0137 µM)
SMILES: Cc1ccc(Nc2nccc(N(C)c3ccc4c(C)n(C)nc4c3)n2)cc1S(N)(=O)=O [pazopanib free base, 5-[[4-[(2,3-dimethyl-2H-indazol-6-yl)methylamino]-2-pyrimidinyl]amino]-2-methylbenzenesulfonamide]
